Results as given in patent US7417156B2, “Orally active, antimalarial, anticancer, artemisinin-derived trioxane dimers” (Johns Hopkins University, priority 2002, dated 2008).

What was measured:
TK-10 = assay: NCI 60 cell line panel screen (SRB); assay type: cell-based, human
UO-31 = assay: NCI 60 cell line panel screen (SRB); assay type: cell-based, human
OVCAR-5 = assay: NCI 60 cell line panel screen (SRB); assay type: cell-based, human
MALME-3M = assay: NCI 60 cell line panel screen (SRB); assay type: cell-based, human
U251 = assay: NCI 60 cell line panel screen (SRB); assay type: cell-based, human; settings: U251 (CNS Cancer)
NCI-H522 = assay: NCI 60 cell line panel screen (SRB); assay type: cell-based, human
MDA-MB-435 = assay: NCI 60 cell line panel screen (SRB); assay type: cell-based, human
SF-268 = assay: NCI 60 cell line panel screen (SRB); assay type: cell-based, human
HL-60(TB) = assay: NCI 60 cell line panel screen (SRB); assay type: cell-based, human
A549/ATCC = assay: NCI 60 cell line panel screen (SRB); assay type: cell-based, human
SK-MEL-2 = assay: NCI 60 cell line panel screen (SRB); assay type: cell-based, human
M14 = assay: NCI 60 cell line panel screen (SRB); assay type: cell-based, human; settings: M-14 (Melanoma); TGI: PG=0
HS 578T = assay: NCI 60 cell line panel screen (SRB); assay type: cell-based, human
MOLT-4 = system: MOLT-4
Experimental: Growth Inhibition. […] The screening assay is performed on 96-well microtitre plates. Relatively high initial inoculation densities are used, in order to permit measurement of “time-zero” values and to enhance the screen's ability to detect and provide some differentiation between growth inhibition and cytotoxic response parameters. […] The inoculated microtitre plates are pre-incubated for 24 hours at 37° C. prior to drug additions. The five drug dilutions tested routinely range from 10^−4 to 10^−8 molar. Higher or lower concentration ranges may be selected on a non-routine basis if appropriate solubility and/or prior biological information or other screening data so dictate. Duplicate wells are prepared for all concentrations, (concentration is often denoted by placing brackets around a number); “time-zero” and “no drug” controls are also provided for each test. The minimum amount of compound required for a one-time evaluation in the routine screen can be calculated from the knowledge that each test requires a total of approximately 40 ml (0.04 liter) of cell culture medium containing the highest desired drug concentration. […] After a 48 hour incubation (37° C.) with the test compound, the cells are fixed in situ to the bottoms of the microtitre wells by addition of 50 μl of either 50% trichloroacetic acid (for adherent cell lines) or 80% trichloroacetic acid (for settled cell suspension lines), followed by incubation for 60 minutes at 4° C. The cellular protein in each well is assayed using a sulforhodamine B (SRB) stain procedure. Briefly, after discarding the supernatants, the microtitre plates are washed 5 times with deionized water and air-dried. […] Unbound SRB is removed by washing 5 times with 1% acetic acid. […] SRB is a bright pink anionic dye which, in dilute acetic acid, binds electrostatically to the basic amino acids of TCA-fixed cells. Cryopreserved master stocks of all the lines are maintained, and cultures used for screening are replaced from the master stock after no more than twenty passages in the screening laboratory. The cell line panel consists of 60 lines, organized into nine, disease-related subpanels including leukemia, non-small-cell lung cancer, colon, CNS, melanoma, ovarian, renal, prostate and breast cancers.
At this value the increase from time tzero, in the number or mass of cells in the test well is only 50% as much as the corresponding increase in the control well during this period of the experiment, see Table III. A drug effect of this intensity is interpreted as primary growth inhibition.
At this value the number or mass of cells in the well at the end of the experiment equals the number or mass of cells in the well at time tzero, see Table IV. A drug effect of this intensity is regarded as cytostasis.
At this value, the number or mass of cells in the test well at the end of the experiment is half that at time tzero, see Table V. This is interpreted as cytotoxicity.
Dose response curves, shown in the above mentioned Figures, are obtained by exposing various cancer cell lines to compounds having a known concentration ([log10M]), as discussed in detail above, and then plotting the percentage growth of each cell line for each concentration. […] Percentage growth is determined by dividing the number or mass of cells in the test well by the number or mass of cells in a control well. […] As discussed previously, the five drug dilutions routinely tested range from 10^−4 to […].

MCF7 = assay: NCI 60 cell line panel screen (SRB); assay type: cell-based, human
CCRF-CEM = assay: NCI 60 cell line panel screen (SRB); assay type: cell-based, human
KM12 = assay: NCI 60 cell line panel screen (SRB); assay type: cell-based, human

C[C@@H]1CC[C@H]2[C@@H](C)C(CC(O)(COC(=O)CCC(=O)O)CC3OC4O[C@]5(C)CC[C@H]6[C@H](C)CC[C@@H]([C@H]3C)C46OO5)OC3O[C@]4(C)CCC1C32OO4 (stereo partly drawn) [Compound 9, tertiary alcohol primary succinate ester]
−5.14 log10M: Log10TGI50 (MALME-3M; MALME-3M (Melanoma), TGI: PG=0)
< 10^−5 molar: drug concentration for primary growth inhibition (percentage growth +50) (MOLT-4; MOLT-4, from dose response curves FIGS. 7a-7i)
>−4.30 log10M: Log10LC50 (TK-10; TK-10 (Renal Cancer), LC50: PG=−50) | Log10LC50 (UO-31; UO-31 (Renal Cancer), LC50: PG=−50) | Log10TGI50 (UO-31; UO-31 (Renal Cancer), TGI: PG=0) | Log10LC50 (OVCAR-5; OVCAR-5 (Ovarian Cancer), LC50: PG=−50) | Log10LC50 (MALME-3M; MALME-3M (Melanoma), LC50: PG=−50) | Log10LC50 (U251; LC50: PG=−50) | Log10TGI50 (NCI-H522; NCI-H522 (Non-Small Cell Lung Cancer), TGI: PG=0) | Log10LC50 (NCI-H522; NCI-H-522 (Non-Small Cell Lung Cancer), LC50: PG=−50) | Log10LC50 (MDA-MB-435; MDA-MB-435 (Breast Cancer), LC50: PG=−50) | Log10TGI50 (MDA-MB-435; MDA-MB-435 (Breast Cancer), TGI: PG=0) | Log10LC50 (SF-268; SF-268 (CNS Cancer), LC50: PG=−50) | Log10TGI50 (SF-268; SF-268 (CNS Cancer), TGI: PG=0) | Log10LC50 (HL-60(TB); HL-60(TB) (Leukemia), LC50: PG=−50) | Log10LC50 (A549/ATCC; A549/ATCC (Non-Small Cell Lung Cancer), LC50: PG=−50) | Log10TGI50 (A549/ATCC; A549/ATCC (Non-Small Cell Lung Cancer), TGI: PG=0) | Log10LC50 (SK-MEL-2; SK-MEL2 (Melanoma), LC50: PG=−50) | Log10TGI50 (SK-MEL-2; SK-MEL-2 (Melanoma), TGI: PG=0) | Log10TGI50 (M14) | Log10LC50 (HS 578T; HS 578T (Breast Cancer), LC50: PG=−50) | Log10TGI50 (HS 578T; HS 578T (Breast Cancer), TGI: PG=0) | Log10LC50 (MOLT-4; MOLT-4 (Leukemia), LC50: PG=−50) | Log10TGI50 (MOLT-4; MOLT-4 (Leukemia), TGI: PG=0) | Log10LC50 (MCF7; MCF7 (Breast Cancer), LC50: PG=−50) | Log10TGI50 (MCF7; MCF7 (Breast Cancer), TGI: PG=0) | Log10LC50 (CCRF-CEM; CCRF-CEM (Leukemia), LC50: PG=−50) | Log10TGI50 (CCRF-CEM; CCRF-CEM (Leukemia), TGI: PG=0)
−5.48: Log10GI50 (SF-268; CNS Cancer, SF-268)
greater than 10^−4 M: concentration for cytotoxicity (percentage growth −50) (MOLT-4; human, 48 h)
<−8.30: Log10GI50 (TK-10; Renal Cancer, TK-10) | Log10GI50 (OVCAR-5; Ovarian Cancer, OVCAR-5) | Log10GI50 (MALME-3M; Melanoma, MALME-3M) | Log10GI50 (MDA-MB-435; Breast Cancer, MDA-MB-435) | Log10GI50 (HL-60(TB); Leukemia, HL-60(TB)) | Log10GI50 (MCF7; Breast Cancer, MCF7) | Log10GI50 (CCRF-CEM; Leukemia, CCRF-CEM) | Log10GI50 (KM12; Colon Cancer, KM12)
−4.91: Log10GI50 (NCI-H522; Non-Small Cell Lung Cancer, NCI-H522)
−4.36 log10M: Log10LC50 (KM12; KM12 (Colon Cancer), LC50: PG=−50)
−4.86: Log10GI50 (A549/ATCC; Non-Small Cell Lung Cancer, A549/ATCC)
−4.36: Log10GI50 (HS 578T; Breast Cancer, HS 578T)
−4.88: Log10GI50 (SK-MEL-2; Melanoma, SK-MEL-2)
<−8.30 log10M: Log10TGI50 (KM12; KM12 (Colon Cancer), TGI: PG=0)
−5.05: Log10GI50 (UO-31; Renal Cancer, UO-31)
−5.15: Log10GI50 (MOLT-4; Leukemia, MOLT-4)
−4.75 log10M: Log10TGI50 (U251; TGI: PG=0)
−4.60 log10M: Log10TGI50 (TK-10; TK-10 (Renal Cancer), TGI: PG=0)
